Results: patent US20060046972A1, “Cytotoxic nucleoside analog compound 003 for treating cancer” (Parker Hughes Institute, priority 2004, published 2006)

How the values were obtained:
BT20 breast cancer cells = assay: Confocal laser scanning microscopy of microtubules / mitotic spindle, BT20; type: cell-based, human
Description: Immunofluorenscence was used to examine the spindle features of human cancer cell lines treated with Compound 003 or 0.5% DMSO. […] The coverslips were incubated with antibodies raised against α-tubulin, γ-tubulin (Sigma Chemical Co., St Louis, Mo.) (40 min 37° C.), washed in PBS-Tx-100, and incubated with an appropriate secondary antibody conjugated to FITC (Jackson ImmunoResearch, Westgrove, Pa.). Cellular DNA was labeled with 5 μM TOTO3 (Molecular Probes, Eugene, Oreg.) for 20 minutes. Coverslips were immediately inverted onto slides in Vectashield (Vector Labs, Burlingame, Calif.) to prevent photobleaching, sealed with nail varnish and stored at −20° C. The slides were examined using a Bio-Rad MRC-1024 Laser Scanning Confocal Microscope equipped with a Kr/Ar laser (BioRad, Hercules, Calif.) mounted on a Nikon Eclipse E800 upright microscope with high numerical aperture objectives (Nikon, Melville, N.Y.). Digital data were processed using Lasersharp (BioRad) and Adobe Photoshop software (Adobe Systems, Mountain View, Calif.). ( See, for example, Navara, et al., 2001, Anticancer Drugs. 12:369; Malaviya, et al., 2002, Leuk Lymphoma. 43, 1329; and Ghosh, 1998, Clin Cancer Res. 4, 2657).

[1] = test system: MDA-MB breast cancer cells; assay: Confocal laser scanning microscopy of mitotic spindle, MDA-MB; type: cell-based, human
Description: Immunofluorenscence was used to examine the spindle features of human cancer cell lines treated with Compound 003 or 0.5% DMSO. Initially, cells at log phase were seeded onto sterile 22 mm coverslips in six -well culture plates. 24 hours later, the cells were treated with compound 003 for 2 hours at 37° C., 5% C02, fixed in methanol (−20° C. 15 min) followed by a 15 minute incubation with PBS +0.1.% Tx-100. The coverslips were incubated with antibodies raised against α-tubulin, γ-tubulin (Sigma Chemical Co., St Louis, Mo.) (40 min 37° C.), washed in PBS-Tx-100, and incubated with an appropriate secondary antibody conjugated to FITC (Jackson ImmunoResearch, Westgrove, Pa.). Cellular DNA was labeled with 5 μM TOTO3 (Molecular Probes, Eugene, Oreg.) for 20 minutes. Coverslips were immediately inverted onto slides in Vectashield (Vector Labs, Burlingame, Calif.) to prevent photobleaching, sealed with nail varnish and stored at −20° C. The slides were examined using a Bio-Rad MRC-1024 Laser Scanning Confocal Microscope equipped with a Kr/Ar laser (BioRad, Hercules, Calif.) mounted on a Nikon Eclipse E800 upright microscope with high numerical aperture objectives (Nikon, Melville, N.Y.). Digital data were processed using Lasersharp (BioRad) and Adobe Photoshop software (Adobe Systems, Mountain View, Calif.). […]

NALM6 cells = assay: Gene profiling, Atlas Human cDNA Expression arrays; type: cell-based
Description: Gene Profiling using the Atlas Human cDNA Expression arrays from Molecular Dynamics was preformed according to the manufacturer's specification, as described below.
Total RNA was prepared from NALM6 cells treated with Compound 003 (5, 50TM, vehicle) using Tripure isolation reagent (Boehringer Mannheim); the reagent is a monophasic solution of phenol and guanidine thiocyanate, followed by Dnase treatment (RQ1 Rnase-Free Dnase, Promega). Total RNA was quantified using standard spectrophotometric methods.
For probe preparation and hybridization, approximately 5 micrograms of total RNA was converted into radioactively labeled cDNA using […] (Amersham) by reverse transcriptase (Clontech). Chroma Spin columns (Clontech) were used to purify labeled cDNA. Atlas cDNA probe was denatured with 1M NaOH/10 mM EDTA and neutralized with 1M NaH2PO4 and C0t-1 DNA at 68° C. Prehybridization solution was discarded and arrays were hybridized overnight. Arrrays were washed 4 times by using 2×SSC/1% SDS and 2 times by using 0.1×SSC/0.5% SDS. Membranes were sealed and exposed to a phosphoscreen (Molecular Dynamics). The expression levels were quantified using 8 bit gray levels using image analysis software (Imagene 4.2, Biodiscovery; Inc).
For the Atlas Human cDNA Expression array, 588 genes were subdivided into these six functional groups: (A) Oncogenes, Tumor suppressors Cell Cycle regulators, (B) Ion channels and transport, Modulators, stress response, (C) Apoptosis, DNA synthesis, repair and recombination, (D) Transcription factors, DNA binding proteins, (E) Receptors, Cell surface antigens, Cell adhesion & (F) Growth factors, cytokines, chemokines, Interleukins, Hormones. The letters correspond to individual quadrants on the array and may be noted as the first letter in each abbreviation in Table 4.
Spots on the macro arrays (5, 50 Tm and control) were analyzed using the spot finder technique in the Imagene software. The integrity and fragmentation: due to saturated pixels, of the spots was assessed and appropriate background measurements were chosen to detect signals. […] All drug treated samples (5, 50TM) were compared to no drug controls using a linear regression method for log2 transformed density readings (Genesight 3.1, Biodiscovery). A piecewise linear regression method (3 bins, minimum of 20 elements per bin) was used normalize density readings across the three arrays to minimize the effect of low expression and saturated signals on the regression. All housekeeping genes were monitored for detection of false positive signals.

## COC(=O)C(C)NP(=O)(OCC1OC(n2cc(C)c(=O)[nH]c2=O)CC1N=[N+]=[N-])Oc1ccc(OC)cc1 (stereo not shown) [Compound 003, 3′-azidothymidine 5′-[p-methoxyphenylmethoxyalaninyl phosphate]]
BT20 breast cancer cells; 100 μM
  mitotic spindle formation: induced aberrant multipolar spindle formation
BT20 breast cancer cells; 185 μM for 24 hours (AZT: similar concentrations)
  effect on microtubules: no microtubules were observed
[1]
  mitotic spindle formation: induced aberrant multipolar (instead of normal bipolar) spindle formation
NALM6 cells
  decreased expression of GADD 153 gene: ~3.5 fold
  downregulation of c-jun proto-oncogene: ~2 fold
NALM6 cells; 50 μM
  increase in the gene for myeloid cell nuclear differentiation antigen (MNDA): ~4 fold
  increased expression of FAN gene: 3 fold
